In PubChem BioAssay (NCI):
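Following 48 hours of exposure in 96-well plates, responses at five concentrations were used to interpolate endpoints linearly. GI50: concentration for 50% inhibition of growth. TGI marks complete inhibition of growth.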

Columns and labels:
Experiment in all cases: NCI anticancer screen, dose series, 48 h
[1] = system: 786-0 renal
[2] = system: A498 renal
[3] = system: A549 NSCLC
[4] = system: ACHN renal
[5] = system: BT-549 breast
[6] = system: CAKI-1 renal
[7] = system: CCRF-CEM leukemia
[8] = system: COLO 205 colon
[9] = system: DU-145 prostate
[10] = system: EKVX NSCLC
[11] = system: HCC-2998 colon
[12] = system: HCT-116 colon
[13] = system: HCT-15 colon
[14] = system: HL-60(TB) leukemia
[15] = system: HOP-62 NSCLC
[16] = system: HOP-92 NSCLC
[17] = system: HS 578T breast
[18] = system: HT29 colon
[19] = system: IGROV1 ovarian
[20] = system: K-562 leukemia
[21] = system: KM12 colon
[22] = system: LOX IMVI melanoma
[23] = system: MALME-3M melanoma
[24] = system: MCF7 breast
[25] = system: MDA-MB-231 breast
[26] = system: MDA-MB-435
[27] = system: MOLT-4 leukemia
[28] = system: NCI-H226 lung
[29] = system: NCI-H23 lung
[30] = system: NCI-H460 lung
[31] = system: NCI-H522 lung
[32] = system: NCI/ADR-RES ovarian
[33] = system: OVCAR-3 ovarian
[34] = system: OVCAR-4 ovarian
[35] = system: OVCAR-5 ovarian
[36] = system: OVCAR-8 ovarian
[37] = system: PC-3 prostate
[38] = system: RPMI-8226 leukemia
[39] = system: RXF 393 renal
[40] = system: SF-268 CNS
[41] = system: SF-295 CNS
[42] = system: SF-539 CNS
[43] = system: SK-MEL-28 melanoma
[44] = system: SK-MEL-5 melanoma
[45] = system: SK-OV-3 ovarian
[46] = system: SN12C renal
[47] = system: SNB-19 CNS
[48] = system: SNB-75 CNS
[49] = system: SR leukemia
[50] = system: SW-620 colon
[51] = system: TK-10 renal
[52] = system: U251 CNS
[53] = system: UACC-257 melanoma
[54] = system: UACC-62 melanoma
[55] = system: UO-31 renal
[56] = system: M14 melanoma
[57] = system: SK-MEL-2 melanoma
[58] = system: T-47D breast

OC[C@H]1C[C@](O)(c2ccc(F)cc2)[C@@H](c2ccc(F)cc2)O1
GI50 [1]: > 100 µM | TGI [1]: > 100 µM | GI50 [2]: > 100 µM | TGI [2]: > 100 µM | GI50 [3]: > 100 µM | TGI [3]: > 100 µM | GI50 [4]: > 100 µM | TGI [4]: > 100 µM | GI50 [5]: > 100 µM | TGI [5]: > 100 µM | GI50 [6]: > 100 µM | TGI [6]: > 100 µM | GI50 [7]: > 100 µM | TGI [7]: > 100 µM | GI50 [8]: > 100 µM | TGI [8]: > 100 µM | GI50 [9]: > 100 µM | TGI [9]: > 100 µM | GI50 [10]: > 100 µM | TGI [10]: > 100 µM | GI50 [11]: > 100 µM | TGI [11]: > 100 µM | GI50 [12]: 90.5 µM | TGI [12]: > 100 µM | GI50 [13]: > 100 µM | TGI [13]: > 100 µM | GI50 [14]: > 100 µM | TGI [14]: > 100 µM | GI50 [15]: > 100 µM | TGI [15]: > 100 µM | GI50 [16]: 66 µM | TGI [16]: > 100 µM | GI50 [17]: 44.2 µM | TGI [17]: > 100 µM | GI50 [18]: > 100 µM | TGI [18]: > 100 µM | GI50 [19]: 58.3 µM | TGI [19]: > 100 µM | GI50 [20]: > 100 µM | TGI [20]: > 100 µM | GI50 [21]: > 100 µM | TGI [21]: > 100 µM | GI50 [22]: > 100 µM | TGI [22]: > 100 µM | GI50 [23]: > 100 µM | TGI [23]: > 100 µM | GI50 [24]: > 100 µM | TGI [24]: > 100 µM | GI50 [25]: > 100 µM | TGI [25]: > 100 µM | GI50 [26]: > 100 µM | TGI [26]: > 100 µM | GI50 [27]: > 100 µM | TGI [27]: > 100 µM | GI50 [28]: > 100 µM | TGI [28]: > 100 µM | GI50 [29]: > 100 µM | TGI [29]: > 100 µM | GI50 [30]: > 100 µM | TGI [30]: > 100 µM | GI50 [31]: > 100 µM | TGI [31]: > 100 µM | GI50 [32]: > 100 µM | TGI [32]: > 100 µM | GI50 [33]: > 100 µM | TGI [33]: > 100 µM | GI50 [34]: > 100 µM | TGI [34]: > 100 µM | GI50 [35]: > 100 µM | TGI [35]: > 100 µM | GI50 [36]: > 100 µM | TGI [36]: > 100 µM | GI50 [37]: > 100 µM | TGI [37]: > 100 µM | GI50 [38]: > 100 µM | TGI [38]: > 100 µM | GI50 [39]: 52.7 µM | TGI [39]: > 100 µM | GI50 [40]: > 100 µM | TGI [40]: > 100 µM | GI50 [41]: > 100 µM | TGI [41]: > 100 µM | GI50 [42]: > 100 µM | TGI [42]: > 100 µM | GI50 [43]: > 100 µM | TGI [43]: > 100 µM | GI50 [44]: > 100 µM | TGI [44]: > 100 µM | GI50 [45]: > 100 µM | TGI [45]: > 100 µM | GI50 [46]: > 100 µM | TGI [46]: > 100 µM | GI50 [47]: > 100 µM | TGI [47]: > 100 µM | GI50 [48]: > 100 µM | TGI [48]: > 100 µM | GI50 [49]: > 100 µM | TGI [49]: > 100 µM | GI50 [50]: > 100 µM | TGI [50]: > 100 µM | GI50 [51]: > 100 µM | TGI [51]: > 100 µM | GI50 [52]: > 100 µM | TGI [52]: > 100 µM | GI50 [53]: > 100 µM | TGI [53]: > 100 µM | GI50 [54]: > 100 µM | TGI [54]: > 100 µM | GI50 [55]: > 100 µM | TGI [55]: > 100 µM

C(=C\c1cc[n+](CCc2ccccc2)cc1)/c1ccccc1
TGI [1]: > 100 µM | TGI [3]: 51.8 µM | TGI [4]: > 100 µM | TGI [5]: 57.9 µM | TGI [6]: 86.1 µM | TGI [7]: 42.5 µM | TGI [8]: 25.6 µM | TGI [9]: > 100 µM | TGI [10]: > 100 µM | TGI [12]: 65.4 µM | TGI [13]: > 100 µM | TGI [15]: 40.4 µM | TGI [16]: > 100 µM | TGI [17]: 54.6 µM | TGI [18]: 35.1 µM | TGI [19]: > 100 µM | TGI [20]: 63.6 µM | TGI [21]: 18.2 µM | TGI [22]: 37 µM | TGI [56]: 31.5 µM | TGI [23]: 28.6 µM | TGI [24]: > 100 µM | TGI [25]: 29.1 µM | TGI [26]: 18.4 µM | TGI [27]: 69.4 µM | TGI [28]: 48.9 µM | TGI [29]: 43.7 µM | TGI [30]: > 100 µM | TGI [31]: 45.4 µM | TGI [32]: > 100 µM | TGI [33]: 26.5 µM | TGI [34]: 50.9 µM | TGI [35]: 88.5 µM | TGI [36]: 19.5 µM | TGI [37]: > 100 µM | TGI [38]: 53.2 µM | TGI [39]: > 100 µM | TGI [40]: 74.5 µM | TGI [41]: > 100 µM | TGI [42]: 50.5 µM | TGI [57]: 55.2 µM | TGI [43]: 26.8 µM | TGI [44]: 5.73 µM | TGI [45]: > 100 µM | TGI [46]: 16.4 µM | TGI [47]: 50.9 µM | TGI [48]: > 100 µM | TGI [50]: 32.3 µM | TGI [58]: 71.7 µM | TGI [51]: > 100 µM | TGI [52]: 18.9 µM | TGI [53]: 17.5 µM | TGI [54]: 22.9 µM | TGI [55]: > 100 µM
